The results in this text go back to patent US5374621A (Regents of the University of California, priority 1991, dated 1994).

The subject of series [1] is heat induced edema in rat paws. Put plainly: Heat injury to the skin: paw edema after immersion in 58° C. water. It counts as in vivo. The settings on record: for ED50 (nmol/kg), inhibition of heat-induced edema / ED50 (μg/kg), inhibition of heat-induced edema: % increase in paw water content 30 minutes after heat injury, as % of saline control.
Method: Peptides, obtained from Peninsula Laboratories or Bachem Laboratories, were dissolved in sterile saline and injected intravenously 10 minutes before exposure to heat.
After removal of the saline-treated animal's paw from 58° C. water, the paw's skin became red, followed by progressive swelling from an initial volume of about 1.5 ml to a net increase of 0.77 ml within 5 minutes.
To compare the potency of the peptides, the following method was used. Thirty minutes after heat injury, rats were killed with an over-dose of concentrated sodium pentobarbital, and both paws cut off at the ankle joint and weighed. All paws were then dried in an oven at 80° C. for 24 hours and re-weighed to obtain % increase in water content as: [formula]
The rat was euthanized 30 minutes later with concentrated pentobarbital and both paws removed by cutting at the ankle joint and weighed. The paws were then dried at 80° C. for 24 hours. Controls received only saline at 0.1 ml/kg i.v. The increase in the water content of the heated paw was calculated as: heated paw (wet wt.--dry wt.)--unheated paw (wet wt.--dry wt.).
Series [2] deals with vascular leakage from abdominal muscle after celiotomy. Put plainly: Skeletal muscle injury (celiotomy): Monastral blue vascular leakage. It counts as in vivo, rat. The following applies: for Lesion Size (x104): area x intensity; for Area (mm^2) of dye staining: samples 30 minutes after celiotomy. How it is done:
(§1) Experiments were conducted on 260±6 (S.D.) male Sprague-Dawley rats from Simonsen Laboratories (Gilroy, Calif.). Animals were injected with sodium pentobarbital, 60 mg/kg i.p. Ten to 15 minutes later, after anesthesia was signaled by loss of the righting reflex and motor responses to tail pinch, Monastral blue B (used to estimate leakage of macromolecules from blood vessels), suspended in saline at 30 mg/ml (Sigma Co., St. Louis, Mo.), was injected 60 mg/kg i.v. at a rate of approximately 0.2 ml/100 g body weight/min into a branch of the femoral vein. Procedures for inducing vascular leakage began three minutes after Monastral blue infusion.
The abdomen was shaved and a 4 cm scalpel cut was made in the midline. After manually parting the skin, an incision of equal length was made in the rectus abdominus and the skin was then pushed together to cover the wound. Thirty minutes after celiotomy, the rat was euthanized with an i.v. overdose of pentobarbital and the skin and muscle surrounding the site of incision were removed and fixed in 10% neutral-buffered formalin (NBF) for at least 2 days before further analysis.
To measure the area of dye distribution and the intensity of dye staining on the surfaces of the tissues, we used an image-processing system (JAVA, Jandel Video Analysis System, Corte Madera, Calif.) in which a video image, composed of pixels with different gray intensities, was subjected to numeric analysis. Samples of the abdominal muscle and brain were placed on a non-reflective coated glass board illuminated by six 60 watt fluorescent bulbs placed 1.65 m above the tissues and the images recorded under these constant conditions, without magnification, on video film. The areas of dye distribution were demarcated with a mouse-pointer device and the average intensity in the defined areas was obtained. To calibrate light intensity on the JAVA system, various concentrations of Monastral blue B (0.0625 to 16 mg/ml) were placed on white filter paper and the intensity scale set from 0 to 255 units. The relationship of light intensity, which is the degree of blueness in arbitrary units, to Monastral blue B concentrations (mg/ml) was: light intensity =124+116 log MB, an equation obtained by linear regression with a correlation coefficient of r= 0.98. The term "lesion size", applied to the area of staining multiplied by its light intensity, represents a two-dimensional measurement of vascular leakage. This assessment was considered adequate because the injuries were to the surfaces of the muscle and cortex and the lesions were not more than a few mm deep. To further characterize the sites of dye leakage from blood vessels, samples of muscle and cortex, cut to approximately 500 μm thickness, were mounted in glycerol gelatin for microscopic examination.
Animals were randomly assigned to treatments using a paired control design with a minimum of 6 rats per group. Data were expressed as the mean ± S.E.M. and the ED50 and 95% confidence limits were estimated by the method of Litchfield and Wilcoxon (1949). The Student's test was used for comparison of groups.

The test system of series [3] is vascular leakage from brain cortex after freeze injury. Put plainly: Cerebral cortex freeze injury: Monastral blue vascular leakage. The following applies: 4 nmol/kg i.v. 10 minutes before freeze injury. The format is in vivo, rat. The protocol:
as §1
This model of vasogenic edema in brain tissues was first described by Chan et al. (1983). Anesthetized rats were mounted on a David Kopf stereotaxic instrument and a 2 to 2.5 cm midline incision made in the shaved scalp. After parting the skin and connective tissue to expose the skull, a 60 mm^2 plate, connected to a brass cup filled with dry ice and acetone and maintained at -50° C., was applied to the skull for four minutes. One hour later, the animal was perfused through the aorta with saline, followed by 10% NBF, and then the brain was removed and stored in 10% NBF for at least two days before further analysis. Sections of membranes covering the cortex were also dissected from the underlying tissues and separately examined.
To measure the area of dye distribution and the intensity of dye staining on the surfaces of the tissues, we used an image-processing system (JAVA, Jandel Video Analysis System, Corte Madera, Calif.) in which a video image, composed of pixels with different gray intensities, was subjected to numeric analysis. Samples of the abdominal muscle and brain were placed on a non-reflective coated glass board illuminated by six 60 watt fluorescent bulbs placed 1.65 m above the tissues and the images recorded under these constant conditions, without magnification, on video film. The areas of dye distribution were demarcated with a mouse-pointer device and the average intensity in the defined areas was obtained. […]

The subject of series [4] is epinephrine-induced pulmonary edema. The experiment in a line: Epinephrine-induced pulmonary edema. It counts as in vivo, rat. The settings on record: 10 nmol/kg i.v. 10 minutes before epinephrine bitartrate 10 μg/kg i.v.; lungs 30 minutes after Epi; Saline + Epi 6.2 ± 0.3.
Method: Male Sprague-Dawley rats weighing 260±9 g (Simonsen Labs, Gilroy, Calif.) were used in all experiments. […] This single dose of Epi is sufficient to produce a non-lethal pulmonary edema in the pentobarbital-anesthetized rat. Thirty minutes after Epi, animals were euthanized with concentrated pentobarbital and the lungs were removed. […] Lungs were blotted on paper towels and weighed (wet wt.), then placed in a 80° C. oven for 24 hour and re-weighed again (dry wt.). The value 1000 (wet wt.-dry wt.)/body wt. was termed the edema index. All data are presented as mean ± SEM. Statistical significance was assessed by analysis of variance (ANOVA) with the Studentized range-test.
The next series has as its system blood pressure. The experiment in a line: Blood pressure (mean arterial pressure) after i.v. injection. The format is in vivo. The settings on record: 10 nmol/kg i.v.; FIG. 4.
The test system of the next series is substance P. Put plainly: Salivary secretion induced by substance P injections. The format is in vivo. The settings on record: substance P 40 μg/kg s.c., rat. An excerpt: Thus, a chemical (Such as illustrated by CP-96,345) that antagonizes the inflammatory mediator, substance P, is not sufficient to prevent edema after thermal injury.

Method for blood pressure: Blood pressure was monitored of animals to which 10 nmol/kg of different compounds were administered i.v. One administration was of saline as control. […] Blood pressure was monitored at intervals over a thirty minute period after injection.

For the compound LANT-6, the “swelling after heat injury” value in series [1] (0.5 mg/kg i.v., control 69±2%, N=6 pairs, P<0.001) worked out at 2±1%.

N-acetyl-neurotensin (8-13) [AcNT8-13]: in series [1] (i.v. 10 minutes before heat), the “ED50 (nmol/kg), inhibition of heat-induced edema” value (from here on “ED50 (nmol/kg), inhibition”) stood at 2.1 nmol/kg. In addition, the “ED50 (μg/kg), inhibition of heat-induced edema” value (“ED50 (μg/kg), inhibition” below) in series [1] (i.v. 10 minutes before heat) stood at 1.8 µg/kg. For the same compound, the “Lesion Size (x104)” value in series [2] (4 nmol/kg i.v. 5 minutes after celiotomy, saline 10.4 ± 0.5) is 5.3 ± 0.4 x104; in series [2] (4 nmol/kg i.v. 10 minutes before celiotomy, saline 12.7 ± 0.4), 5.0 ± 0.2 x104. For the same compound, the “Intensity of dye staining” value is recorded as 108 ± 5 in series [2] (4 nmol/kg i.v. 5 minutes after celiotomy, saline 137 ± 31); 126 ± 2 in series [2] (4 nmol/kg i.v. 10 minutes before celiotomy, saline 149 ± 2); 119 ± 4 in series [3] (saline 151 ± 4). Further, the “Area (mm^2) of dye staining” value in series [2] (4 nmol/kg i.v. 5 minutes after celiotomy, saline 758 ± 39) is recorded as 493 ± 27 mm^2; in series [2] (4 nmol/kg i.v. 10 minutes before celiotomy, saline 852 ± 27), 399 ± 18 mm^2; in series [3] (brain removed sixty minutes later, saline 38 ± 2) it was 21 ± 2 mm^2. Further, in series [3] (area x intensity, saline 5.7 ± 0.2), the “Lesion Size (x103)” value was 2.4 ± 0.3 x103. Moreover, the “Edema Index, 1000 (wet wt.-dry wt.)/body wt.” value in series [4] came to 4.9 ± 0.2. Also, the “hypotensive effect (blood pressure over 30 minutes)” value with blood pressure was “lacked hypotensive effect”.

neurotensin (8-13) [NT (8-13)]: the “swelling response (paw volume change)” value in series [1] (FIG. 1, different doses before 58° C. water, paw volume up to 30 minutes) is given as “dose-dependent suppression”. Further, in series [1] (i.v. 10 minutes before heat), the “ED50 (nmol/kg), inhibition” value is listed as 1.9 nmol/kg and the “ED50 (μg/kg), inhibition” value was determined as 1.6 µg/kg. Further, the “Edema Index, 1000 (wet wt.-dry wt.)/body wt.” value in series [4] turned out to be 4.7 ± 0.2. Further, in the series on blood pressure, the “hypotensive effect (blood pressure over 30 minutes)” value is listed as “lacked hypotensive effect”.

“neuromedin N (IPYIL; Neuromedin N; UniProt P30990 144-148, looked up) [peptide of the neurotensin family]”: in series [1] (i.v. 10 minutes before heat), the “ED50 (nmol/kg), inhibition” value stood at 10.0 nmol/kg and the “ED50 (μg/kg), inhibition” value worked out at 7.5 µg/kg.

Regarding `COc1ccccc1CN[C@H]1C2CCN(CC2)[C@H]1C(c1ccccc1)c1ccccc1` [CP-96,345, reference compound], the “Increase in Water Content of Heated Paw” value in series [1] (4 mg/kg i.v. 10 minutes before 58° C. water for one minute, 30 minutes later, saline 1117 ± 33, not significantly different) is listed as 1057 ± 24 mg. Also, the “salivary secretion induced by substance P” value with substance P was “prevent salivary secretion”.

Regarding Kinetensin, the “ED20, inhibition of heat-induced edema” value in series [1] (i.v. 10 minutes before heat, dose range 200-800 nmol/kg) stood at 420 nmol/kg.

As to xenopsin, in series [1] (i.v. 10 minutes before heat), the “ED50 (nmol/kg), inhibition” value was 0.9 nmol/kg and the “ED50 (μg/kg), inhibition” value stood at 0.88 µg/kg.
